Test results as given in patent publication US20130022620A1, “ASSAYS AND METHODS PERTAINING TO PRE-AMYLOID INTERMEDIATES” (priority 2011, published 2013).

How the values were obtained:
[1] = system: mouse aortic smooth muscle cells; assay: AlamarBlue cell viability assay of aortic smooth muscle cells; format: cell-based
Method: Mouse vascular SMCs were cultured from the aortas of 10-week-old male mice using a modification of the procedure of Tarvo and Barret. See Tarvo et al. Blood Vessels. 1980; 17:110-116. SMCs were cultured following an explant protocol in accordance with institutional guidelines. […] Cyto-toxicity was measured by AlamarBlue assay. INS-1 β-cells were seeded at a density of 30,000 cells per well in 96-well plates and cultured for 24 hours prior to stimulation with IAPP. Human and rat IAPP were dissolved and incubated in 16 mM tris HCl (pH 7.4, 25° C.) prior to cell stimulation. AlamarBlue was diluted ten-fold in culture media and cells were incubated for 5 hours at 37° C. Fluorescence (excitation 530; emission 590 nm) was measured on a Beckman Coulter DTX880 fluorescent plate reader. Values calculated were relative to those of control cells treated with buffer only. All values represent means±SEM (n=3).

sRAGE [2] = biological target: T1, sRAGE (Homo sapiens, UniProt Q15109); assay: Surface plasmon resonance binding to immobilized sRAGE; conditions: 20 μM h-IAPP
T1 construct: the soluble extracellular domain of RAGE (sRAGE); made in house; host or cells: Sf9 insect cells (baculovirus)
T1 sequence (Q15109 23-342): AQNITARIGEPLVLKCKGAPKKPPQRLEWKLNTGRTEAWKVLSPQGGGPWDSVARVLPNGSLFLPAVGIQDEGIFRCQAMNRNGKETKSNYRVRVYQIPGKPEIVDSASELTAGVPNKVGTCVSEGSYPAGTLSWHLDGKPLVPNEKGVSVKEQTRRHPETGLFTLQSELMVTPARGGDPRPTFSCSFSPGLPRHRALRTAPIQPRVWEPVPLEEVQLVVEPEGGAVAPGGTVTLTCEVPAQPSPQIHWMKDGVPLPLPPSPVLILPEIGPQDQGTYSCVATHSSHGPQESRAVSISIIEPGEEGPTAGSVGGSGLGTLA
Method: A 20 μM h-IAPP solution was prepared in 16 mM tris HCl buffer (pH 7.4) and aliquots of the reaction were analyzed for binding at various incubation times after peptide dissolution. All SPR binding experiments were carried out on a GE Healthcare SPR instrument in the laboratory of Dr. Donald Landry at Columbia University Medical Center.

[3] = Thioflavin-T kinetics and TEM of amyloid formation by IAPP peptides; format: physicochemical; conditions: wild type IAPP under the conditions described
Method: Thioflavin-T fluorescence was used to monitor the time course of h-IAPP amyloid formation in the presence and absence of sRAGE. To identify which form(s) of h-IAPP interact with RAGE, sRAGE was added to h-IAPP at various time points during the h-IAPP amyloid formation reaction. Aliquots of the reaction mixture were analyzed by adding 100 uL aliquots of the amyloid formation reaction to 96-well plates containing 8 uL of 60 uM thioflavin-T solution at various incubation times after initiation of the amyloid formation reaction. Fluorescence was measured using a Beckman Coulter DTX880 fluorescent plate reader (excitation: 445 nm and emission: 485 nm). Final solution conditions contained 16 mM tris HCl and […] thioflavin-T (pH 7.4). […] All values represent means±SEM (n=3).
Transient kinetic species of h-IAPP were characterized by TEM. TEM images confirm the presence or absence of amyloid which were indicated by thioflavin-T fluorescence. Aliquots (4 μl) were removed from the reaction mixtures monitored by thioflavin-T assays, placed on a carbon-coated 200-mesh copper grid and negatively stained with saturated uranyl acetate. The samples were imaged with a Philips CM12 transmission electron microscope at the New York University electron microscopy core facility. Final solution conditions contained 16 mM tris HCl (pH 7.4).

rat INS-1 β-cells = assay: AlamarBlue cell viability assay of β-cells; format: cell-based
Method: Transformed rat insulinoma-1 (INS-1) β-cells (which express RAGE) are a pancreatic beta cell line commonly used for studies of h-IAPP induced toxicity. INS-1 cells were grown in RPMI 1640 supplemented with 10% fetal bovine serum (FBS), 11 mM glucose, 10 mM Hepes, 2 mM L-glutamine, 1 mM sodium pyruvate, 50 μM β-mercaptoethanol, 100 U/ml penicillin, and […] streptomycin. Cells were maintained at 37° C./5% CO2.
Cyto-toxicity was measured by AlamarBlue assay. INS-1 β-cells were seeded at a density of 30,000 cells per well in 96-well plates and cultured for 24 hours prior to stimulation with IAPP. Human and rat IAPP were dissolved and incubated in 16 mM tris HCl (pH 7.4, 25° C.) prior to cell stimulation. AlamarBlue was diluted ten-fold in culture media and cells were incubated for 5 hours at 37° C. Fluorescence (excitation 530; emission 590 nm) was measured on a Beckman Coulter DTX880 fluorescent plate reader. Values calculated were relative to those of control cells treated with buffer only. All values represent means±SEM (n=3).
Changes in cell morphology were examined by light microscopy to provide a second method of evaluating cell viability. Transformed rat INS-1 beta cells were photographed immediately prior to assessment of toxicity by Alamar blue cell viability assays. Images were taken using an Olympus BX-61 light microscope.

sRAGE [4] = biological target: T1, sRAGE; assay: Tryptophan fluorescence quenching assay of sRAGE binding; conditions: sRAGE added at different time points of the reaction, 1:1 molar ratio
Description: The quenching of tryptophan fluorescence indicates binding. Fluorescence measurements were made at right angle in a […] dual path length quartz cuvette, using a Photon Technology International fluorescent spectrometer (280 nm excitation and 350 nm emission). Background fluorescence from buffer and IAPP peptides were negligible. The fluorescence quantum yield reported for each time point is an average of 20 reads over 20 seconds (2.5 nm bandwidth and 1 second integration time). Final solution conditions contained 16 mM tris HCl (pH 7.4).

mouse pancreatic islets = assay: AlamarBlue cell viability assay of pancreatic islets; format: cell-based; conditions: FVB
ANS binding assay = format: physicochemical; conditions: 10 μM ANS, pH 7.4
Method: 8-Anilinonaphthalenesulfonic Acid (ANS) is a small hydrophobic dye which is been widely used in protein folding studies. It typically binds to partially structured states which are rich in secondary structure, compact, but which have not yet established the final tertiary structure, thus this dye can be used to detect a molten globule-like character of proteins. Fluorescence spectra of ANS-peptide complexes were measured using a Spex Fluorolog fluorimeter at 25 C (370 nm excitation and 460 nm emission). ANS-peptide complexes were monitored by adding aliquots of human IAPP to a 1 cm cuvette containing 10 μM ANS at various times along the amyloid formation reaction. Final solution conditions contained 16 mM tris HCl and 10 μM ANS (pH 7.4). […] All values represent means±SEM (n=3).

[5] = Far-UV CD of h-IAPP species; format: physicochemical; conditions: at time points of toxicity
Method: CD measurements of IAPP, sRAGE and IAPP/sRAGE reactions were taken at various incubation times. Far-UV CD experiments monitor the development of secondary structure of h-IAPP species and give insight into the conformational requirement for IAPP/RAGE-binding. All CD experiments were performed on an Applied Photophysics circular dichroism spectrophotometer by directly transferring 300 μL of peptide solution from kinetic assays into a 0.1 cm quartz cuvette a few minutes prior to data collection. The CD spectra for sRAGE and tris HCl buffer was subtracted from all RAGE/IAPP mixtures. The final far-UV CD data was collected over the range of 190 to 260 nm. Final solution conditions contained 16 mM tris HCl (pH 7.4).

CC[C@H](C)[C@H](NC(=O)[C@H](C)NC(=O)CNC(=O)[C@H](Cc1ccccc1)NC(=O)[C@H](CC(N)=O)NC(=O)[C@H](CC(N)=O)NC(=O)[C@H](CO)NC(=O)[C@H](CO)NC(=O)[C@H](Cc1c[nH]cn1)NC(=O)[C@@H](NC(=O)[C@H](CC(C)C)NC(=O)[C@H](Cc1ccccc1)NC(=O)[C@H](CC(N)=O)NC(=O)[C@H](C)NC(=O)[C@H](CC(C)C)NC(=O)[C@H](CCCNC(=N)N)NC(=O)[C@H](CCC(N)=O)NC(=O)[C@@H](NC(=O)[C@H](C)NC(=O)[C@@H]1CSSC[C@H](NC(=O)[C@@H](N)CCCCN)C(=O)N[C@@H](CC(N)=O)C(=O)N[C@@H]([C@@H](C)O)C(=O)N[C@@H](C)C(=O)N[C@@H]([C@@H](C)O)C(=O)N1)[C@@H](C)O)C(C)C)C(=O)N[C@@H](CC(C)C)C(=O)N[C@@H](CO)C(=O)N[C@@H](CO)C(=O)N[C@H](C(=O)N[C@@H](CC(N)=O)C(=O)N[C@H](C(=O)NCC(=O)N[C@@H](CO)C(=O)N[C@@H](CC(N)=O)C(=O)N[C@H](C(=O)N[C@@H](Cc1ccc(O)cc1)C(N)=O)[C@@H](C)O)C(C)C)[C@@H](C)O [h-IAPP, human islet amyloid polypeptide]
toxicity to smooth muscle cells ([1]; h-IAPP intermediates): toxic to smooth muscle cells
toxicity to RAGE-null versus wild type SMCs ([1]; increasing amounts of h-IAPP toxic species): genetic deletion of RAGE protects SMCs from h-IAPP toxicity compared to WT SMCs
RAGE binding of transiently populated intermediates (SPR) (sRAGE [2]; intermediates): binds transiently populated intermediates
RAGE binding of monomers or amyloid fibrils (SPR) (sRAGE [2]; monomers or amyloid fibrils): does not bind to h-IAPP monomers or amyloid fibrils
time at which the amyloid formation reaction reaches saturation [3]: about 40 hrs
cell toxicity of amyloid fibrils (rat INS-1 β-cells; amyloid fibrils added to cultured cells): No toxicity was observed
cell toxicity (AlamarBlue cell viability, light microscopy) (rat INS-1 β-cells; peptide incubated in buffer at room temperature for various times, then applied to INS-1 β-cells): maximum toxicity was observed at intermediate time points
toxicity of resuspended pellet after ultracentrifugation (rat INS-1 β-cells; resuspended pellet added to beta cells): the resuspended pellet is not
toxicity of soluble phase after ultracentrifugation (rat INS-1 β-cells; supernatant added to beta cells): toxic to beta cells
binding to sRAGE (tryptophan fluorescence quenching) (sRAGE [4]): wave of fluorescence quenching
loss in viability relative to buffer treatment alone (mouse pancreatic islets): 50%
ANS binding to final amyloid fibrils (ANS binding assay): did bind
ANS binding to monomeric form and intermediates (ANS binding assay): No ANS binding was observed
secondary structure (far UV CD) [5]: some partial helical structure, but no beta sheet structure
